Results from the NIST ThermoML archive (doi:10.1016/j.fluid.2018.09.026).
Where “and” joins values, the source holds several entries; their conditions need not be identical. Equal values may be shown once.

Details: Liquid; for mass density: Vibrating tube method; for viscosity: 293.23 K, Vibrating wire viscometry

OCCOCCO [diethylene glycol]
Details | mass density [kg/m3]
283.15 K, 100 kPa | 1123.1
283.15 K, 640 kPa | 1123.3
283.15 K, 1080 kPa | 1123.5
283.15 K, 1590 kPa | 1123.7
283.15 K, 2140 kPa | 1124
283.15 K, 3050 kPa | 1124.3
283.15 K, 5050 kPa | 1125.2
283.15 K, 6930 kPa | 1126
283.15 K, 9930 kPa | 1127.2
283.15 K, 14810 kPa | 1129.3
283.15 K, 19760 kPa | 1131.3
283.15 K, 24610 kPa | 1133.3
283.15 K, 29600 kPa | 1135.2
283.15 K, 34500 kPa | 1137.1
283.15 K, 39420 kPa | 1139
283.15 K, 44300 kPa | 1140.8
283.15 K, 49180 kPa | 1142.6
283.15 K, 54060 kPa | 1144.4
283.15 K, 59030 kPa | 1146.1
283.15 K, 63810 kPa | 1147.8
283.15 K, 68760 kPa | 1149.5
293.15 K, 100 kPa | 1115.9
293.15 K, 570 kPa | 1116.1
293.15 K, 1080 kPa | 1116.3
293.15 K, 1530 kPa | 1116.6
293.15 K, 2110 kPa | 1116.8
293.15 K, 3080 kPa | 1117.2
293.15 K, 5040 kPa | 1118.1
293.15 K, 6990 kPa | 1118.9
293.15 K, 9940 kPa | 1120.2
293.15 K, 14840 kPa | 1122.3
293.15 K, 19740 kPa | 1124.3
293.15 K, 24680 kPa | 1126.4
293.15 K, 29600 kPa | 1128.4
293.15 K, 34530 kPa | 1130.3
293.15 K, 39360 kPa | 1132.2
293.15 K, 44320 kPa | 1134.1
293.15 K, 49120 kPa | 1136
293.15 K, 54090 kPa | 1137.8
293.15 K, 58990 kPa | 1139.6
293.15 K, 63820 kPa | 1141.3
293.15 K, 68750 kPa | 1143
303.15 K, 100 kPa | 1108.8
303.15 K, 680 kPa | 1109
303.15 K, 1130 kPa | 1109.2
303.15 K, 1580 kPa | 1109.4
303.15 K, 2120 kPa | 1109.7
303.15 K, 3030 kPa | 1110.1
303.15 K, 5040 kPa | 1111
303.15 K, 6950 kPa | 1111.9
303.15 K, 9960 kPa | 1113.2
303.15 K, 14840 kPa | 1115.4
303.15 K, 19740 kPa | 1117.5
303.15 K, 24680 kPa | 1119.6
303.15 K, 29610 kPa | 1121.6
303.15 K, 34520 kPa | 1123.6
303.15 K, 39380 kPa | 1125.6
303.15 K, 44350 kPa | 1127.5
303.15 K, 49140 kPa | 1129.4
303.15 K, 54090 kPa | 1131.3
303.15 K, 58990 kPa | 1133.1

Details | viscosity
180 kPa | 34.67 mPa·s [middle of 4 runs]
1170 kPa | 34.84 mPa·s [middle of 4 runs]
2100 kPa | 34.99 mPa·s [middle of 5 runs]
2110 kPa | 35.15 mPa·s
5060 kPa | 35.84 mPa·s and 36.03 mPa·s and 36.04 mPa·s
5070 kPa | 35.72 mPa·s
10240 kPa | 37.39 mPa·s [middle of 4 runs]
19990 kPa | 40.52 mPa·s [middle of 4 runs]
29910 kPa | 43.47 mPa·s and 43.45 mPa·s
29920 kPa | 43.5 mPa·s and 43.6 mPa·s
40040 kPa | 47.04 mPa·s [middle of 5 runs]
50530 kPa | 51.14 mPa·s [middle of 4 runs]
69900 kPa | 58.55 mPa·s
69990 kPa | 58.38 mPa·s
70070 kPa | 58.52 mPa·s
